Results on two compounds are retold here after patent US5087616A, “Cytotoxic drug conjugates and their delivery to tumor cells” (Battelle Memorial Institute, priority 1986, dated 1992).

Experiment [1] deals with A431 squamous carcinoma cells. In words: Comparative cytotoxic effects of free and conjugated daunomycin, Trypan Blue exclusion. The class given is cell-based, human. As to conditions: A431, 1 μg/ml daunomycin or equivalent in conjugate, 48 hours. On the procedure: All cells were maintained in Dulbecco's Modified Medium (DMEM), 10 percent foetal calf serum (FSC) (GIBCO), 2 percent penicillin-streptomycin (Gibco) and 1 percent fungizone (GIBCO) in 5 percent CO2. They were plated at 50 to 60 percent confluence 24 hours before the addition of the toxin. […] Four volumes of 0.2 percent (w/v) Trypan Blue in water was freshly mixed with 1 volume of a saline solution 4.25 percent (w/v) of NaCl in water. One volume of this solution was mixed with 1 volume of PBS on the cell monolayer or to 1 volume of cell suspension in PBS. Observation and scoring took place 48 hours after addition of the toxin (see FIG. 2a and 2b).

The test system of experiment [2] is mixed culture of A431 and WI38 cells. In words: Effect on mixed cultures of tumor (A431) and normal (WI38) cells. The class given is cell-based. Conditions: 0.1 μg/ml (or equivalent free daunomycin), after 15 days. On the procedure: Cells were maintained as described in Example 4. The WI38 fibroblasts were first plated and the A431 squamous carcinoma cells were plated the next day. […]

Experiment [3] concerns A431 malignant cells. In words: Inhibition of cellular protein synthesis (35S methionine incorporation), A431. The class given is cell-based. As to conditions: Homo sapiens, A-431, 48 h, read-out: % of protein Synthesis Inhibition. On the procedure: (§1) The effect of these drugs was evaluated by the degree of inhibition of cellular protein synthesis. For this, we measured the level of incorporation of 35S methionine NEN) into newly synthesized proteins after a 48 hrs exposure to different concentrations of the drugs.
(§2) Cells were plated on 1.5 cm Petri dishes at 50 percent to 60 percent of confluence before the addition of the toxin. […] Cell death consecutive to this addition was measured as follows: the cells were exposed for 1 hour at 37° C. in 500 μl DMEM low methionine medium (GIBCO) containing radioactive ^35 S met. The medium was then removed and the dishes were washed with PBS 9137 mM NaCl, […], […], 8.1 mM Na2 HPO4, 1.5 mM KH2 PO4, 0.9 mM CaCl2, 0.5 mM MgCl2, pH 7.2). These solutions were stored for beta counting. The cells were lysed with 1 ml 0.1 N NaOH and placed in a tube with 500 μl Trichloroacetic acid (TCA) 10 percent to precipitate the proteins. This mixture was filtered on GF/A filters (Whatman) to eliminate unreacted ^35 S-met. The filters were washed twice with 1 ml of 10 percent TCA and once with 100 percent ethanol. The filters were dried at 80° C. for 2 hours and subjected to beta counting in Econofluor (NEN) scintillation medium.

Experiment [4] deals with WI38 (control) cells. Description: Inhibition of cellular protein synthesis (35S methionine incorporation), WI38. The class given is cell-based. Conditions: Homo sapiens, WI-38, 48 h. On the procedure: as §1, §2
In experiment [5] the test system is A431 tumors. In words: In vivo test of Conjugate VIII, A431 tumors in nude mice. Conditions: for Initial Surface of the Tumor (A): before treatment; for Final Surface of the tumor (B): a week after last injection; for Tumor weight: tumors dissected at end of experiment. On the procedure:
In the prior art, up to 10 mg/kg doses have been used in mice (S. Schwarz, et al., 1975, Cancer Chem. Rep., 6, 2, 107-114). The drug was injected either directly in the tumor or in the caudal vein 4 times at 3 days intervals. The measures were taken a week after the last injection.

In experiment [6] the test system is A431 tumors. In words: In vivo test of Conjugate IX, A431 tumors in nude mice. As to conditions: 2 mg/kg daunomycin every 3 days over 9 days, caudal vein. An excerpt: The in vivo tests reported in Example 8 were repeated using Conjugate IX.
The subject of experiment [7] is A431 squamous carcinoma cells. In words: Internalization of 125I-labelled EGF and Conjugate VIII in A431 cells. The class given is cell-based, human. As to conditions: A431, 6 hrs at 37° C. On the procedure: (§3) The Conjugate VIII, radiolabeled with ^125 I on the EGF, was incubated with confluent cell cultures of A431 and WI38 cells for 6 hrs at 37° C. in solution A (4 parts DMEM and 1 part of 50 mM Tris, 100 mM NaCl and 0.1 percent BSA adjusted to pH 7.4). The cells were then washed four times with ice-cold PBS+1 mM CaCl2 and 1 mM MgCl2. Fifty percent trichloroacetic acid was added in a proportion of 1:5 to the pooled solution A and PBS, and the mixture was counted on a gamma counter. The cell membrane was destablized by treatment on ice with 200 mM acetic acid and 150 mM NaCl (solution B) for 6 minutes. The solution B was then removed and the cells washed twice with solution B. These pooled B solutions were assayed for ^125 I. This treatment releases the […] to the cell surface. The cells were then completely dissolved in 0.2 N NaOH. The radioactivity found there represented the internalized Conjugate VIII. In control experiments, using free EGF ^125 I, a proportion of the EGF is recycled to the medium, therefore lowering the intracellular EGF. The results on the internalization of ^125 I labelled EGF and Conjugate VIII in WI38 and A431 cell cultures are given in the following Table in terms of counts per min (background 30 cpm) for successively: EGF not integrated in the cell, EGF bound to the membrane, and EGF in the intra-cellular compartment. The percent of total cpm is given in brackets.

The subject of experiment [8] is WI38 fibroblasts. In words: Internalization of 125I-labelled EGF and Conjugate VIII in WI38 cells. The class given is cell-based. As to conditions: WI38, 6 hrs at 37° C. On the procedure:
as §3

[9] abbreviates: I.T., 0.1 mg/kg daunomycin 4 times at 3 days intervals.

One may read the inhibition as the drop in the measured response relative to a control, in per cent. Turning to `COc1cccc2c1C(=O)c1c(O)c3c(c(O)c1C2=O)C[C@@](O)(C(C)=O)C[C@@H]3O[C@H]1C[C@H](N)[C@H](O)[C@H](C)O1` [Daunomycin, daunomycin], the “Cell death by Trypan Blue exclusion” value in experiment [1] is given as “Exclusion of the dye from the cells demonstrates the viability thereof”. Also, in experiment [2], the “Cells remaining in mixed culture” value was “all cells, malignant and normal, had died after 15 days”. Further, the inhibition at 0.1 µg/mL in experiment [3] came out at 30%; in experiment [4], 10%. In addition, the inhibition at 0.5 µg/mL stood at 68% in experiment [3] and 46% in experiment [4]. The inhibition at 1 µg/mL is 97% in experiment [3] and 80% in experiment [4]. Besides, the “Initial Surface of the Tumor (A)” value in experiment [5] (I.T. (intratumor)) is given as 9; in experiment [5] (I.V. (caudal vein)) it was 30.5. In addition, in experiment [5] (setting [9]), the “Growth coefficient (B/A)” value is 18.7. Also, the “Final Surface of the tumor (B)” value is on record as 170 in experiment [5] (setting [9]) and 500 in experiment [5] (I.V., 0.1 mg/kg daunomycin 4 times at 3 days intervals). Also, the Tumor weight in experiment [5] (I.T.) was 1.178 g; in experiment [5] (I.V.), 6.789 g. Besides, the Tumor diameter in experiment [6] (day 0) is given as 10 mm; in experiment [6] (day 4), 12 mm; in experiment [6] (day 7) it was 15 mm; in experiment [6] (day 11), 20 mm; in experiment [6] (day 14), 21 mm.
As for “EGF: Epidermal Growth Factor, a single polypeptide of 53 amino acids (SIGMA)”, in experiment [7], the “Intracellular, percent of total cpm” value stood at 14%; the “Membrane, percent of total cpm” value was found to be 0%; the “Unbound, percent of total cpm” value is 86%. Moreover, in experiment [7] (background 30 cpm), the Intracellular is reported as 111 cpm, the Membrane is reported as 31 cpm and the “Unbound (EGF not integrated in the cell)” value came out at 536 cpm. In experiment [8], the “Intracellular, percent of total cpm” value was determined as 7%; the “Membrane bound, percent of total cpm” value came out at 0%; the “Unbound, percent of total cpm” value came to 93%. Further, in experiment [8] (background 30 cpm), the Intracellular is 67 cpm, the Membrane bound stood at 29 cpm and the “Unbound (EGF not integrated in the cell)” value amounted to 530 cpm. The Tumor diameter in experiment [6] (day 0) came to 10 mm. The Tumor diameter in experiment [6] (day 4) was 13 mm. In addition, the Tumor diameter in experiment [6] (day 7) came out at 14 mm. Further, in experiment [6] (day 11), the Tumor diameter is listed as 17 mm. In experiment [6] (day 14), the Tumor diameter was found to be 17 mm.
